Earlier results in patent US12404360B2, “Method of preparing graft copolymer” (LG CHEM, LTD., priority 2019, dated 2025).

Key:
[1] = not given; remark: listed apart in the source

Row | Solubility in water at 20° C. | 10-hour half-life decomposition temperature in water [1] | 10-hour half-life decomposition temperature in methanol ([1]; in methanol) | SMILES | 10-hour half-life decomposition temperature in toluene [1]
1 | 2.4 g/100 g | 86 °C |  | CC(C)(/N=N/C(C)(C)C(=O)NCCO)C(=O)NCCO [VA-086] | 
2 | 35.2 g/100 g | 44 °C |  | CC(C)(/N=N/C(C)(C)C1=NCCN1)C1=NCCN1 [VA-044] | 
3 |  | 56 °C |  | CC(C)(/N=N/C(C)(C)C(=N)N)C(=N)N [VA-050] | 
4 | 0.1 g/100 g | 69 °C |  | CC(C#N)(CCC(=O)O)/N=N/C(C)(C#N)CCC(=O)O (stereo not drawn) [VA-501] | 
5 | 14 g/100 g | 57 °C |  | CC(C)(/N=N/C(C)(C)C(=N)NCCC(=O)O)C(=N)NCCC(=O)O [VA-057] | 
6 | 0.5 g/100 g |  | 61 °C | CC(C)(/N=N/C(C)(C)C1=NCCN1)C1=NCCN1 [VA-061] | 

Row | SMILES | Solubility in water at 20° C. | 10-hour half-life decomposition temperature in water [1] | 10-hour half-life decomposition temperature in methanol ([1]; in methanol) | 10-hour half-life decomposition temperature in toluene [1]
7 | CC(C)(C#N)/N=N/C(C)(C)C#N [AIBN] | < 0.1 g/100 g |  |  | 65 °C
8 | CC(C)CC(C)(C#N)/N=N/C(C)(C#N)CC(C)C (stereo not drawn) [Example V-65] | < 0.1 g/100 g |  |  | 51 °C
